The assay concerns Tunicamycin induced ISR (ATF4) in wild-type HEK293 cells. Description: HEK-ATF4 High Content Imaging assay (prevention of Tunicamycin induced ISR, ATF4 nucleus/cytoplasm signal ratio). It counts as cell-based. The conditions noted are these: Homo sapiens, 6 hrs incubation, ATF4 immunofluorescence. How it is done:
HEK-ATF4 High Content Imaging Assay
Example compounds were tested in the HEK-ATF4 High Content Imaging assay to assess their pharmacological potency to prevent Tunicamycin induced ISR. Wild-type HEK293 cells were plated in 384-well imaging assay plates at a density of 12,000 cells per well in growth medium (containing DMEM/F12, 10% FBS, 2 mM L-Glutamine, 100 U/mL Penicillin—100 μg/mL Streptomycin) and incubated at 37° C., 5% CO2. 24-hrs later, the medium was changed to 50 μl assay medium per well (DMEM/F12, 0.3% FBS, 2 mM L-Glutamine, 100 U/mL Penicillin—100 μg/mL Streptomycin). Example compounds were serially diluted in dimethyl sulfoxide (DMSO), spotted into intermediate plates and prediluted with assay medium containing 3.3 μM Tunicamycin to give an 11-fold excess of final assay concentration. In addition to the example compound testing area, the plates also contained multiples of control wells for assay normalization purposes, wells, containing Tunicamycin but no example compounds (High control), as well as wells containing neither example compound nor Tunicamycin (Low control). The assay was started by transferring 5 μl from the intermediate plate into the assay plates, followed by incubation for 6 hrs at 37° C., 5% CO2. Subsequently, cells were fixed (4% PFA in PBS, 20 min at room temperature) and submitted to indirect ATF4 immunofluorescence staining (primary antibody rabbit anti ATF4, clone D4B8, Cell Signaling Technologies; secondary antibody Alexa Fluor 488 goat anti-rabbit IgG (H+L), Thermofisher Scientific). Nuclei were stained using Hoechst dye (Thermofisher Scientific), and plates were imaged on an Opera Phenix High Content imaging platform equipped with 405 nm and 488 nm excitation. Finally, images were analyzed using script based algorithms. The main readout HEK-ATF4 monitored the ATF4 signal ratio between nucleus and cytoplasm. Tunicamycin induced an increase in the overall ATF4 ratio signal, which was prevented by ISR modulating example compounds. In addition, HEK-CellCount readout was derived from counting the number of stained nuclei corresponding to healthy cells. This readout served as an internal toxicity control.
As usually defined, the IC50 is the concentration that gives 50% inhibition. With `O=C(COc1ccc(Cl)c(F)c1)N[C@@H]1CC[C@@H](c2nnc(-c3ccc(Cl)cc3)o2)OC1` [Example 1, 2-(4-chloro-3-fluoro-phenoxy)-N-[(3R,6S)-6-[5-(4-chlorophenyl)-1,3,4-oxadiazol-2-yl]tetrahydropyran-3-yl]acetamide], the IC50 was in the range of 0.001 to 0.5 µM.
Regarding `O=C(COc1ccc(Cl)cc1)N[C@@H]1CC[C@@H](c2nnc(-c3ccc(Cl)cc3)o2)OC1` [Example 2, 2-(4-chlorophenoxy)-N-[(3R,6S)-6-[5-(4-chlorophenyl)-1,3,4-oxadiazol-2-yl]oxan-3-yl]acetamide], the IC50 lay in the range of 0.001 to 0.5 µM.
For `O=C(COc1ccc(Cl)c(F)c1)N[C@@H]1CC[C@@H](c2nnc(-c3ccc(C(F)(F)F)nc3)o2)OC1` [Example 3, 2-(4-chloro-3-fluorophenoxy)-N-[(3R,6S)-6-{5-[6-(trifluoromethyl)pyridin-3-yl]-1,3,4-oxadiazol-2-yl}oxan-3-yl]acetamide], the IC50 is 0.001 to 0.5 µM.
Turning to `O=C(COc1ccc(Cl)c(F)c1)N[C@H]1CC[C@H](c2nnc(-c3ccc(Cl)cc3)o2)OC1` [Example 4, 2-(4-chloro-3-fluorophenoxy)-N-[(3S,6R)-6-[5-(4-chlorophenyl)-1,3,4-oxadiazol-2-yl]oxan-3-yl]acetamide], the 50% inhibitory concentration (IC50) was in the range of 0.001 to 0.5 µM.
Take `O=C(COc1ccc(Cl)c(F)c1)N[C@@H]1CC[C@@H](c2nnc(-c3ccc(C4CC4)nc3)o2)OC1` [Example 5, 2-(4-chloro-3-fluorophenoxy)-N-[(3R,6S)-6-[5-(6-cyclopropylpyridin-3-yl)-1,3,4-oxadiazol-2-yl]oxan-3-yl]acetamide]: the IC50 fell in the range of 0.001 to 0.5 µM.
Consider `CCc1ccc(-c2nnc([C@@H]3CC[C@@H](NC(=O)COc4ccc(Cl)c(F)c4)CO3)o2)cn1` [Example 6, 2-(4-chloro-3-fluorophenoxy)-N-[(3R,6S)-6-[5-(6-ethylpyridin-3-yl)-1,3,4-oxadiazol-2-yl]oxan-3-yl]acetamide], for which the IC50 was 0.5 to 2 µM.
On to `O=C(COc1cnc(Cl)c(F)c1)N[C@@H]1CC[C@@H](c2nnc(-c3ccc(Cl)cc3)o2)OC1` [Example 7, 2-[(6-chloro-5-fluoropyridin-3-yl)oxy]-N-[(3R,6S)-6-[5-(4-chlorophenyl)-1,3,4-oxadiazol-2-yl]oxan-3-yl]acetamide], for which the 50% inhibitory concentration (IC50) lay in the range of 0.001 to 0.5 µM.
`O=C(COc1ccnc(C(F)(F)F)c1)N[C@@H]1CC[C@@H](c2nnc(-c3ccc(Cl)cc3)o2)OC1` [Example 8, N-[(3R,6S)-6-[5-(4-chlorophenyl)-1,3,4-oxadiazol-2-yl]oxan-3-yl]-2-{[2-(trifluoromethyl)pyridin-4-yl]oxy}acetamide]: the IC50 was in the range of 0.5 to 2 µM.
With `O=C(COc1ccc(Cl)nc1)N[C@@H]1CC[C@@H](c2nnc(-c3ccc(Cl)cc3)o2)OC1` [Example 9, N-[(3R,6S)-6-[5-(4-chlorophenyl)-1,3,4-oxadiazol-2-yl]oxan-3-yl]-2-[(6-chloropyridin-3-yl)oxy]acetamide], the IC50 is 0.001 to 0.5 µM.
In the case of `Cc1ncc(OCC(=O)N[C@@H]2CC[C@@H](c3nnc(-c4ccc(Cl)cc4)o3)OC2)cc1F` [Example 10, N-[(3R,6S)-6-[5-(4-chlorophenyl)-1,3,4-oxadiazol-2-yl]oxan-3-yl]-2-[(5-fluoro-6-methylpyridin-3-yl)oxy]acetamide], the IC50 fell in the range of 0.5 to 2 µM.
In the case of `O=C(COc1cnc(Cl)c(F)c1)N[C@@H]1CC[C@@H](c2nnc(-c3ccc(Cl)nc3)o2)OC1` [Example 11, 2-[(6-chloro-5-fluoropyridin-3-yl)oxy]-N-[(3R,6S)-6-[5-(6-chloropyridin-3-yl)-1,3,4-oxadiazol-2-yl]oxan-3-yl]acetamide], the IC50 was in the range of 2 to 15 µM.
In the case of `Cc1ccc(OCC(=O)N[C@@H]2CC[C@@H](c3nnc(-c4ccc(Cl)cc4)o3)OC2)cn1` [Example 12, N-[(3R,6S)-6-[5-(4-chlorophenyl)-1,3,4-oxadiazol-2-yl]oxan-3-yl]-2-[(6-methylpyridin-3-yl)oxy]acetamide], the concentration for half-maximal inhibition (IC50) is 2 to 15 µM.
As for `O=C(COc1cnc(Cl)cn1)N[C@@H]1CC[C@@H](c2nnc(-c3ccc(Cl)cc3)o2)OC1` [Example 13, N-[(3R,6S)-6-[5-(4-chlorophenyl)-1,3,4-oxadiazol-2-yl]oxan-3-yl]-2-[(5-chloropyrazin-2-yl)oxy]acetamide], the half-inhibitory concentration (IC50) is 0.5 to 2 µM.
Take `O=C(COc1cnc(Cl)nc1)N[C@@H]1CC[C@@H](c2nnc(-c3ccc(Cl)cc3)o2)OC1` [Example 14, N-[(3R,6S)-6-[5-(4-chlorophenyl)-1,3,4-oxadiazol-2-yl]oxan-3-yl]-2-[(2-chloropyrimidin-5-yl)oxy]acetamide]: the 50% inhibitory concentration (IC50) lay in the range of 0.5 to 2 µM.
As for `Cc1ncc(OCC(=O)N[C@@H]2CC[C@@H](c3nnc(-c4ccc(Cl)cc4)o3)OC2)cc1Cl` [Example 15, 2-[(5-chloro-6-methylpyridin-3-yl)oxy]-N-[(3R,6S)-6-[5-(4-chlorophenyl)-1,3,4-oxadiazol-2-yl]oxan-3-yl]acetamide], the IC50 fell in the range of 0.001 to 0.5 µM.
Consider `O=C(COc1ccc(Cl)c(F)c1)N[C@@H]1CC[C@@H](c2nnc(-c3cncc(C(F)(F)F)c3)o2)OC1` [Example 16, 2-(4-chloro-3-fluorophenoxy)-N-[(3R,6S)-6-{5-[5-(trifluoromethyl)pyridin-3-yl]-1,3,4-oxadiazol-2-yl}oxan-3-yl]acetamide], for which the half-maximal inhibitory concentration (IC50) is 0.5 to 2 µM.
For `O=C(COc1ccc(Cl)c(F)c1)N[C@@H]1CC[C@@H](c2nnc(-c3ccnc(C(F)(F)F)c3)o2)OC1` [Example 17, 2-(4-chloro-3-fluorophenoxy)-N-[(3R,6S)-6-{5-[2-(trifluoromethyl)pyridin-4-yl]-1,3,4-oxadiazol-2-yl}oxan-3-yl]acetamide] the value was 0.001 to 0.5 µM; for `O=C(COc1ccc(C(F)(F)F)nc1)N[C@@H]1CC[C@@H](c2nnc(-c3ccc(Cl)cc3)o2)OC1` [Example 18], 0.001 to 0.5 µM; for `O=C(COc1cncc(C(F)(F)F)c1)N[C@@H]1CC[C@@H](c2nnc(-c3ccc(Cl)cc3)o2)OC1` [Example 19, N-[(3R,6S)-6-[5-(4-chlorophenyl)-1,3,4-oxadiazol-2-yl]oxan-3-yl]-2-{[5-(trifluoromethyl)pyridin-3-yl]oxy}acetamide], 0.5 to 2 µM.

For the origin of these results see US20220213078A1, “MODULATORS OF THE INTEGRATED STRESS RESPONSE PATHWAY” (EVOTEC INTERNATIONAL GMBH, priority 2019, published 2022).
